Results published in US9067920B2, “Compounds useful for inhibiting Chk1” (Eli Lilly and Company, priority 2010, dated 2015).
Counter-ions that a name gives are not always drawn.

Tests used:
[1] = tested on: HT-29 colon tumor xenograft; test: HT-29 tumor xenograft model, subcutaneous administration of Chk1 inhibitor; type: in vivo, nude mice
Description: (§1) The ability of Chk1 inhibitors to potentiate tumor killing by DNA damaging agents can be determined in vivo using the Calu-6 lung and HT-29 colon tumor xenograft efficacy models. Calu-6 lung cancer cells are cultured in growth media (MEM with Earle's Balanced Salt Solution with L-glutamine supplemented with 10% (v/v) heat inactivated FBS, 1×MEM non-essential amino acids, 1× sodium pyruvate) and HT-29 colon cancer cells (ATCC) are cultured in growth media, (McCoy's 5A medium supplemented with 10% FBS) and expanded.
(§2) Cells are harvested and washed twice with phosphate buffered saline and 5×10^6 cells (HT-29) or 1×10^6 a cells (Calu-6) in growth media (without serum) are mixed with equal volume of BD Matrigel™ matrix, then injected subcutaneously into the flank of nude mice (CD-1 nu/nu).
At about day 16 after implant ([…]), gemcitabine is formulated fresh in saline daily and administered to animals by intraperitoneal route at 60 mg/kg dose. Twenty four hours later animals are administered the compound of Example 3, in 0.2% Tween-80/0.5% methylcellulose subcutaneously BID. After […], dosing is repeated for three additional cycles (Q4Dx4 with the compound of Example 3 offset+24 hours), Tumor growth inhibition (TGI) is calculated as the percent reduction in mean tumor size of a compound treated group from the mean tumor size of the vehicle-treated control group. Compounds within the scope of the invention are tested in this assay run substantially as above.

[2] = tested on: Calu-6 lung tumor xenograft; test: Calu-6 tumor xenograft model, oral administration of Chk1 inhibitor; type: in vivo, nude mice
Description: as §1, §2
At about day 16 after implant (150-200 mm^3), gemcitabine is formulated fresh in saline daily and administered to animals by intraperitoneal route at 40 mg/kg dose. Twenty four hours later animals are administered Chk1 compound, in 0.2% Tween-80/0.5% methylcellulose by the oral route MD. After three days of rest, dosing was repeated for three additional cycles (Q5Dx4 with the compound of Example 3 offset+24 hours). Tumor growth inhibition (TGI) is calculated as described in the previous paragraph. Compounds within the scope of the invention are tested in this assay run substantially as above.

Chk1 = target: T1, Chk1 (Homo sapiens, UniProt O14757); test: Chk1 biochemical assay (CHK1/substrate peptide filter binding); conditions: 60 μM ATP, 0.75 nM Chk1 enzyme
T1 sequence (O14757 1-476): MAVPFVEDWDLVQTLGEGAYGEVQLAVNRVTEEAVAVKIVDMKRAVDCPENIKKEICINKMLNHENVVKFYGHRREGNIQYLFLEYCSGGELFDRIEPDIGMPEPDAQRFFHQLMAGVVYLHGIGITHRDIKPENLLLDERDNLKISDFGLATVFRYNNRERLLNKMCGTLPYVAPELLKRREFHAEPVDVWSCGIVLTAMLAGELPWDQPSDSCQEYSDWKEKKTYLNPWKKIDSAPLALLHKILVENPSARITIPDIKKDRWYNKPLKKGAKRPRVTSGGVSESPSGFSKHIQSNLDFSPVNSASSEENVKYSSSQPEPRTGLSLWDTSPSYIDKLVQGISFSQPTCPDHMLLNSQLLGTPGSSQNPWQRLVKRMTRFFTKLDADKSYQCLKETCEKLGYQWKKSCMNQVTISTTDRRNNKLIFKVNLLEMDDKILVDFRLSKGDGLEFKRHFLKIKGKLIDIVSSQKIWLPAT
Description: The effect of compounds on Chk1 biochemical activity can be determined using a CHK1/substrate peptide filter binding assay. In this assay, a synthetic peptide based on the amino acid sequence residues 206-225 of Cdc25, is used as a phospho-acceptor substrate for recombinant Chk1 protein kinase. Using γ-^33P-ATP as the phospho-donor substrate, Chk1 transfers the radioactive γ-^33phosphate group to the synthetic peptide. The reaction is measured by capturing the peptide substrate on a cation exchange paper filter plate and scintillation counting of emitted beta particles.
The kinase reactions (40 μL reaction volumes) are performed in 96-well V-bottom polystyrene plates. Reactions are initiated with the addition of Chk1 enzyme. […]
Following Chk1 enzyme addition, the reactions are incubated at room temperature for 90 min, and then terminated with the addition of 140 μL of phosphoric acid. […] After sitting for 4 h at room temperature, the radioactivity in the plate is measured using a MicroBeta Trilux microplate scintillation counter (Perkin Elmer).
For IC50 determination, the percent inhibition for each concentration is calculated using the scintillation count ratio from controls run on each plate. […] Absolute IC50 values are calculated from the resulting curve. […]

| SMILES | % TGI at day 38 ([1]; HT29, Example 3 40 mpk subcutaneous BID alone) [%] | anti-tumor activity in combination with gemcitabine ([1]; HT-29 xenograft, subcutaneous BID, gemcitabine 60 mg/kg ip) | increase in tumor growth inhibition over gemcitabine alone ([1]; subcutaneous, stated for HT-29 and Calu-6 models together) | % TGI at day 37 ([2]; Calu6, Example 3 30 mpk oral alone) [%] | anti-tumor activity in combination with gemcitabine ([2]; Calu-6 xenograft, oral, gemcitabine 40 mg/kg ip) | IC50 (Chk1) [nM] |
| --- | --- | --- | --- | --- | --- | --- |
| COc1nc(C)ccc1-c1cc(Nc2cncc(O[C@@H]3CCCNC3)n2)[nH]n1 [Example 3, (R)-[5-(2-Methoxy-6-methyl-pyridin-3-yl)-2H-pyrazol-3-yl]-[6-(piperidin-3-yloxy)-pyrazin-2-yl]-amine acetic acid salt] | 26 | excellent dose dependent anti-tumor activity | up to a six-fold increase in tumor growth inhibition over gemcitabine alone | 37 | excellent dose dependent anti-tumor activity | – |
| COc1nc(C)ccc1-c1cc(Nc2cncc(O[C@@H]3CCCNC3)n2)[nH]n1 [Example 1, (R)-[5-(2-Methoxy-6-methyl-pyridin-3-yl)-2H-pyrazol-3-yl]-[6-(piperidin-3-yloxy)-pyrazin-2-yl]-amine] | – | – | – | – | – | < 1 |
